Values quoted from earlier work, collected in patent US20040175342A1, “Process of making and using composition containing oxidation-sensitive hydrophilic active principle and maleic anhydride copolymer” (L'OREAL, priority 2002, published 2004).

Legend:
[1] = tested on: reconstructed epidermides
[2] = tested on: reconstructed epidermides; conditions: after treatment

Structure (SMILES) | synthesis of ceramides [1] | barrier function of reconstructed epidermides [2] | effect on differentiation of keratinocytes (keratinocytes) | bioavailability
O=C1O[C@H]([C@@H](O)CO)C(O)=C1O [Ascorbic acid, ascorbic acid] | increase | improved | prodifferentiating effect | 
O=C1O[C@H]([C@@H](O)CO)C(O)=C1O[C@H]1O[C@H](CO)[C@@H](O)[C@H](O)[C@H]1O [ascorbyl glucoside] | this effect has also been demonstrated |  |  | 
O=C1O[C@H]([C@@H](O)CO)C([O-])=C1OP(=O)([O-])[O-].O=C1O[C@H]([C@@H](O)CO)C([O-])=C1OP(=O)([O-])[O-].[Mg+2].[Mg+2].[Mg+2] [magnesium ascorbyl phosphate] | this effect has also been demonstrated |  |  | very low
